# Test results from patent US6831190B1, “Guanidinomethyl cyclohexane carboxylic acid ester derivatives” (Teikoku Chemical Industries Co., Ltd., priority 1994, dated 2004).
# Key:
# [1] = system: Escherichia coli NIH JC-2; assay: MIC, standard method of Japanese Chemotherapy Academy; format: cell-based; conditions: Objected Strain 3: Escherichia coli NIH JC-2
# Description: (§1) 1. Minimum Inhibitory Concentration (MIC) was measured in accordance with the standard method of Japanese Chemotherapy Academy (Chemotherapy, 29: 76-79, 1981).
# [2] = system: Helicobacter pylori ATCC 43629; assay: MIC, agar plating dilution (standard method of Japanese Chemotherapy Academy); format: cell-based; conditions: Objected Strain 2: Helicobacter pylori ATCC 43629
# Summary of the method: (§2)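 Agar dilution MIC followed the Japanese Chemotherapy Academy standard method, on Brain Heart Infusion agar with 0.1% cyclodextrin and compounds dissolved in DMSO. Plates were incubated microaerobically at 37 °C for three days.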
# [3] = system: Helicobacter pylori ATCC 43504; assay: as above; format: cell-based; conditions: Objected Strain 1: Helicobacter pylori ATCC 43504
# Summary of the method: as §2
# [4] = system: Helicobacter pylori No. 1; assay: MIC and MBC, liquid medium dilution; format: cell-based; conditions: Objected Strain 4: Helicobacter pylori No. 1
# Description: (§3) 2. Minimum Inhibitory Concentration (MIC) and Minimum Bacteria sterilizeory Concentration (MBC) against helicobacter pylon were measured in accordance with the liquid medium dilution. […] And […] of helicobacter pylon bacterial solution, which was cultured at 37° C. for three days and then diluted and prepared with the above mentioned liquid medium, was added to the mixtures to adjust the volume to 105 CFU/ml. […] After they were cultured by the same method as above mentioned, minimum concentration of the compounds which were not recognized the growth with the naked eyes were measured as the values of MBC.
# [5] = system: Helicobacter pylori ATCC 43629; assay: MIC and MBC, liquid medium dilution; format: cell-based; conditions: Objected Strain 2: Helicobacter pylori ATCC 43629
# Description: as §3
# [6] = system: Helicobacter pylori ATCC 43504; assay: MIC and MBC, liquid medium dilution; format: cell-based; conditions: Objected Strain 1: Helicobacter pylori ATCC 43504
# Description: as §3
# [7] = system: Helicobacter pylori No. 2; assay: MIC and MBC, liquid medium dilution; format: cell-based; conditions: Objected Strain 5: Helicobacter pylori No. 2
# Description: as §3
# [8] = system: Helicobacter pylori No. 3; assay: MIC and MBC, liquid medium dilution; format: cell-based; conditions: Objected Strain 6: Helicobacter pylori No. 3
# Description: as §3
# [9] = system: Helicobacter pylori No. 4; assay: MIC and MBC, liquid medium dilution; format: cell-based; conditions: Objected Strain 7: Helicobacter pylori No. 4
# Description: as §3
# [10] = system: Helicobacter pylori No. 1; assay: MIC, agar plating dilution, clinical segregation strain; format: cell-based; conditions: Strain 4: Helicobacter pylori No. 1
# Description: (§4) Minimum Inhibitory Concentration (MIC) was measured in accordance with the standard method of Japanese Chemotherapy Academy (Chemotherapy, 29: 76-79, 1981). Sensitivity was measured with an agar plating dilution using Brain-Heart Infusion agar (Difco Co.) which was added 0.1% of cyclodextrin. […] of the solutions of the compounds which were obtained in examples of the present invention was prepared by dissolving in dimethylsulfoxide. […] Each of 1 ml of those prepared solutions was dispensed in share, after sterilization, 9 ml of sensitivity measuring medium which is kept at 50° C. was added to each, and they were sufficiently mixed. The mixture was used as a plate for measuring sensitivity. Brain Heart Infusion agar medium (Difco Co.), which was added 0.1% of cyclodextrin, was used as bacteria growing medium, and was cultured under microair at 37° C. for three days, and the number of bacteria thereof was adjusted to about 106/ml. This was used as a bacterial solution for inoculation. The medium was painted in each square about 2 cm with nichromic line loop. The medium was cultured under microair for three days at 37° C. […] The each result is shown at Table 4.
# [11] = system: Helicobacter pylori No. 2; assay: as above; format: cell-based; conditions: Strain 5: Helicobacter pylori No. 2
# Description: as §4
# [12] = system: Helicobacter pylori No. 3; assay: as above; format: cell-based; conditions: Strain 6: Helicobacter pylori No. 3
# Description: as §4
# [13] = system: Helicobacter pylori No. 20; assay: as above; format: cell-based; conditions: Strain 9: Helicobacter pylori No. 20
# Description: as §4
# [14] = system: Helicobacter pylori No. 28; assay: as above; format: cell-based; conditions: Strain 10: Helicobacter pylori No. 28
# Description: as §4
# [15] = system: Helicobacter pylori No. 4; assay: as above; format: cell-based; conditions: Strain 7: Helicobacter pylori No. 4
# Description: as §4
# [16] = system: Helicobacter pylori No. 19; assay: as above; format: cell-based; conditions: Strain 8: Helicobacter pylori No. 19
# Description: as §4
# [17] = system: Staphylococcus aureus ATCC 6538; assay: MIC, standard method of Japanese Chemotherapy Academy; format: cell-based; conditions: Strain 12: Staphylococcus aureus ATCC 6538
# Description: as §1
# (§5) And MIC of the compounds of Example 3, 36, 8, 14, 17, 21, 41 and 45 were measured.
# [18] = system: Bacillus subtilis ATCC 6633; assay: as above; format: cell-based; conditions: for MIC against bacillus subcillus ATCC 6633: standard method of Japanese Chemotherapy Academy
# Description: as §1, §5
# [19] = system: Staphylococcus aureus No. 2 (MRSA); assay: as above; format: cell-based; conditions: Strain 14: Staphylococcus aureus No. 2 (MRSA)
# Description: as §1, §5
# [20] = system: Staphylococcus aureus 209PJC; assay: as above; format: cell-based; conditions: Strain 11: Staphylococcus aureus 209PJC
# Description: as §1, §5
# [21] = system: ethanol hydrochloride ulceration; conditions: against an ethanol hydrochloride ulceration; cited from earlier work
# helicobacter pylori = assay: MIC of benexart hydrochloride, for reference; format: cell-based; conditions: strain and medium not given
# Description: For reference, the value of MIC of benexart hydrochloride was >100 µg/ml.
MIC [1],MIC [2],MIC [3],MIC [4],MIC [5],MIC [6],MIC [7],MIC [8],MIC [9],MIC [10],MIC [11],MIC [12],MIC [15],MIC against bacillus subcillus ATCC 6633 [18],Structure (SMILES),MBC [4],MBC [5],MBC [6],MBC [7],MBC [8],MBC [9],further results
>25 µg/mL,0.39 µg/mL,0.39 µg/mL,0.20 µg/mL,0.39 µg/mL,0.20 µg/mL,0.39 µg/mL,0.10 µg/mL,0.39 µg/mL,0.10 µg/mL,0.39 µg/mL,0.10 µg/mL,0.20 µg/mL,> 25 µg/mL,"Cc1ccc(COC(=O)c2ccc(-c3ccc(OC(=O)[C@H]4CC[C@H](CNC(=N)N)CC4)cc3)cc2)cc1.Cl [Example 14, trans-4-guanidinomethyl cyclohexane carboxylic acid [4-[4-(4-methylbenzyloxy carbonyl)phenyl]phenylester].hydrochloride]",0.20 µg/mL,1.56 µg/mL,0.20 µg/mL,1.56 µg/mL,0.10 µg/mL,0.39 µg/mL,MIC [13]: 0.39 µg/mL; MIC [14]: 0.39 µg/mL; MIC [16]: 0.20 µg/mL; MIC [17]: >25 µg/mL; MIC ([18]; Strain 13: Bacillus subtilis ATCC 6633): >25 µg/mL; MIC [19]: >25 µg/mL; MIC [20]: >25 µg/mL
>25 µg/mL,0.39 µg/mL,0.78 µg/mL,0.20 µg/mL,0.39 µg/mL,0.20 µg/mL,0.39 µg/mL,0.05 µg/mL,0.39 µg/mL,0.10 µg/mL,0.39 µg/mL,0.10 µg/mL,0.20 µg/mL,> 25 µg/mL,"Cl.N=C(N)NC[C@H]1CC[C@H](C(=O)Oc2ccc(-c3ccc(C(=O)OCc4ccc(Cl)cc4)cc3)cc2)CC1 [Example 15, trans4-guanidinomethyl cyclohexane carboxylic acid [4-[4-(4-chlorobenzyloxy carbonyl)phenyl]phenylester].hydrochloride]",0.78 µg/mL,1.56 µg/mL,0.39 µg/mL,1.56 µg/mL,0.10 µg/mL,0.39 µg/mL,
>25 µg/mL,0.78 µg/mL,0.78 µg/mL,0.20 µg/mL,0.39 µg/mL,0.20 µg/mL,0.78 µg/mL,0.05 µg/mL,0.10 µg/mL,0.20 µg/mL,0.78 µg/mL,0.20 µg/mL,0.39 µg/mL,> 25 µg/mL,"Cl.N=C(N)NC[C@H]1CC[C@H](C(=O)Oc2ccc(-c3ccc(C(=O)OCc4ccc(F)cc4)cc3)cc2)CC1 [Example 16, trans-4-guanidinomethyl cyclohexane carboxylic acid [4-[4-(4-fluorobenzyloxycarbonyl)phenyl]phenylester].hydrochloride]",0.78 µg/mL,1.56 µg/mL,0.39 µg/mL,3.13 µg/mL,0.10 µg/mL,0.39 µg/mL,
,,,,,,,,,,,,,,N=C(N)NCC1CCC(C(=O)Oc2ccc(CCC(=O)NO)cc2)CC1 (stereo not drawn) [Formula (XIV)],,,,,,,ulceration restraining ratio [21]: 88.7%
,,,,,,,,,,,,,,Cl.NC(N)=NCC1CCC(C(=O)Oc2ccccc2C(=O)OCc2ccccc2)CC1 (stereo not drawn) [benexart hydrochloride],,,,,,,MIC (helicobacter pylori): > 100 µg/mL
